In US10274488B2, “Glycan arrays on PTFE-like aluminum coated glass slides and related methods” (Academia Sinica, priority 2008, dated 2019):

Assays:
Conditions in all cases: reaction in solution
[1] = system: cellulase from A. niger; test: Enzymatic hydrolysis in solution with cellulase from A. niger, MS-TOF readout; format: biochemical, Aspergillus niger
Description: (§1) Enzymatic hydrolysis of the immobilized poly-fluorinated cellobiose 8 (see FIG. 14) was first conducted in situ on the phosphonic acid slide surface. Three commercially available cellulases, Aspergillus niger (A. niger), Trichoderma reesei (T. reesei), and Trichoderma viride (T. viride) were prepared separately at 5 U/mL in a sodium acetate (25 mM) buffer solution (pH 5) and loaded onto the functionalized slide which has been divided into 16 wells using Fast Frame reaction chambers. For comparison, an aliquot of enzyme solution (100 μL) was added to the solution of fluorinated cellobiose (100 μL of 0.5 mM) in eppendorfs to carry out the enzymatic hydrolysis reactions in solution. After the reaction, it was transferred to the empty wells of the same slide. Each well was rinsed separately three times with de-ionized water and the slide was dried again under high vacuum before subjecting to MS-TOF analysis.
(§2) Under MS-TOF analysis, the clean background baseline allowed calculation of the percentage of hydrolyzed components for each sample. As shown in the MS-TOF results in FIG. 20, percentages of hydrolyzed products are calculated from the peak intensities of each spectrum. According to implementations of experimental data shown in FIG. 20, MS-TOF data of enzymatic hydrolysis of poly-fluorinated cellobiose in solution in FIG. 20A and immobilized on PTFE-like ACG slide in FIG. 20B. The control are the same experimental conditions run without enzymes in (a); (b), (c), and (d) are experimental conditions with the cellulase proteins from A. niger (b), T. reesei (c), and T. viride (d).
(§3) Cellulase was prepared (5 U/mL in 25 mM pH 5.05 NaOAc buffer solution). Substrate was also dissolved in NaOAc buffer solution (25 mM, pH 5.05) to give 0.5 mM substrate solution. Add 100 uL cellulase solution to 100 uL substrate solution in eppendorf to have a 2.5 U/mL cellulase solution with 0.25 mM substrate. This solution was incubated in 37° C. for 18 hours. Add 100 μL incubated solution onto the slide loaded in FAST® Frame. Put the slide in dry box to remove the water, and then use high vacuum to remove trace water. 100 μL water was used to rinse each well of the FAST® Frame multi-slide plate to solve and remove the salt of the buffer solution. Remove any residual water on the plate by high vacuum and then analyzed the slide by MALDI-TOF Ultra-Flex II.

[2] = system: endoglucanase 44A; test: Enzymatic hydrolysis in solution with purified endoglucanase 44A, MS-TOF assay; format: biochemical, Clostridium thermocellum
Description: To verify, the exoglucanases (L3) and endoglucanase (44A) were prepared according methods well known in the literature with minor modifications. First, enzymatic hydrolysis reactions were conducted in solution with the purified enzymes using substrates 8, 9 and 10. At the completion of the reaction, the solution mixtures were transferred to the PTFE-like ACG slide, and prepared by using the same washing procedures before being subjected to MS-TOF assay.
For each carbohydrate, a specific enzyme was added: (a) is the control run without enzymes, (b) is exoglucanase L3, and (c) is endoglucanase 44A. […]
as §3
The genomic DNA of Sulfolobus solfataricus (ATCC 35092) and Clostridium thermocellum (ATCC 27405) were obtained from the ATCC biological resource center. The Sso7d (NCBI accession number: AAK42090) gene fragment was amplified directly from the Sulfolobus solfataricus genome by polymerase chain reaction (PCR) with forward 5′ […] 3′ (SEQ ID NO: 1) and reverse 5′ […] 3′ (SEQ ID NO: 2) primers. The PCR product encoding Sso7d was digested with NdeI and BamHI and subsequently cloned into expression vector pET-28a (Novagen) to generate pET-28-Sso7d. […]

[3] = system: cellulase from T. reesei; test: Enzymatic hydrolysis in solution with cellulase from T. reesei, MS-TOF readout; format: biochemical, Trichoderma reesei
Description: as §1, §2, §3

Row | Biose (un-hydrolyzed cellobiose), percentage of hydrolyzed pattern ([1]; A. niger cellulase, pH 5) [%] | F-tail, percentage of hydrolyzed pattern ([1]; A. niger cellulase, pH 5) | Glucose, percentage of hydrolyzed pattern ([1]; A. niger cellulase, pH 5) [%] | Triose, percentage of hydrolyzed pattern ([1]; A. niger cellulase, pH 5) [%] | Triose, percentage of hydrolyzed pattern ([1]; A. niger cellulase, pH 5, listed as cellobiose) [%] | Hydrolysis of the substrate by the enzyme from A. niger, one glucose unit at a time (in words) [1] | Cleavage of the substrate by endoglucanase 44A (in words) [2] | Biose (un-hydrolyzed cellobiose), percentage of hydrolyzed pattern ([3]; T. reesei cellulase, pH 5) [%] | F-tail, percentage of hydrolyzed pattern ([3]; T. reesei cellulase, pH 5) [%] | Glucose, percentage of hydrolyzed pattern ([3]; T. reesei cellulase, pH 5) [%] | Triose, percentage of hydrolyzed pattern ([3]; T. reesei cellulase, pH 5) | Hydrolysis of the substrate by the enzyme from T. reesei compared with the enzymes from the other two species (in words) [3] | Compound
1 | 64 | 0/0% | 18 | 18 | 8 | very slow reaction rate | can't accept | 7 | 0 | 93 | 0/0% |  | O=C(NCCCCCO[C@@H]1O[C@H](CO)[C@@H](O[C@@H]2O[C@H](CO)[C@@H](O)[C@H](O)[C@H]2O)[C@H](O)[C@H]1O)OCCCC(F)(F)C(F)(F)C(F)(F)C(F)(F)C(F)(F)C(F)(F)C(F)(F)C(F)(F)F [Compound 8, [(4,4,5,5,6,6,7,7,8,8,9,9,10,10,11,11,12,12,12-nonadecafluorododecoxycarbonyl-amino)pentyl] ß-D-cellobioside]
2 |  |  |  |  |  | very slow reaction rate | can't accept |  |  |  |  | most efficiently | O=C(NCCCCCO[C@@H]1O[C@H](CO)[C@@H](O[C@@H]2O[C@H](CO)[C@@H](O[C@@H]3O[C@H](CO)[C@@H](O)[C@H](O)[C@H]3O)[C@H](O)[C@H]2O)[C@H](O)[C@H]1O)OCCCC(F)(F)C(F)(F)C(F)(F)C(F)(F)C(F)(F)C(F)(F)C(F)(F)C(F)(F)C(F)(F)F [Compound 9, [(4,4,5,5,6,6,7,7,8,8,9,9,10,10,11,11,12,12,12-nonadecafluorododecoxycarbonyl-amino)pentyl] ß-D-glucopyranosyl-(1→4)-ß-D-glucopyranosyl-(1→4)- -ß-D-glucopyranoside]
